Laboratory results: patent US7592000B2, “Method of tanning human body by mysting or immersion at elevated temperature” (Merck Patent GmbH, priority 2004, dated 2009)

Legend:
[1] = monomer/dimer equilibrium of DHA dissolved in water; assay type: physicochemical; details: DHA solutions at 30-50° C. versus 20° C.
Text: It is assumed that the effect, advantageous according to the invention, of the improved tanning effect at elevated temperatures in the case of 1,3-dihydroxyacetone is connected with the following mechanism. As a raw material, DHA is in the form of a powder and consists of dimers. Dissolved in water, some of the dimers convert to the active monomeric form, which brings about the tanning reaction. At an elevated water temperature, the amount of monomers increases. […] At the same time, the elevated temperature increases the reaction rate of the tanning reaction. […] It is therefore preferred according to the invention when the solution of the self-tanning substance is tempered for about 15 min, but at least about 10 min, before the solution is applied to the human skin.

[2] = over the entire pH range; cited from earlier work

Row | more active DHA monomers present than in DHA solutions at 20° C. [1] | SMILES | antioxidative activity relative to the investigated structures [2]
1 | up to 30% | O=C(CO)CO [DHA, 1,3-dihydroxyacetone] | 
2 |  | O=c1c(O)c(-c2ccc(O)c(O)c2)oc2cc(O)cc(O)c12 [quercetin, 3,3′,4′,5,7-pentahydroxyflavone] | highest activity of the investigated structures
